Structures are written as SMILES.

Results on 1 compound are retold here after US5919803A, “3-benzylamino-2-phenylpiperidines as neurokinin antagonists” (Glaxo Group Limited, priority 1995, dated 1999).

This test has as its system radiation-induced emesis in the ferret. As to the kind of experiment: radiation-induced emesis in the ferret. In kind it is in vivo. Particulars: 0.1 mg/kg s.c., compound administered 1.5 hours prior to irradiation (whole body, 2 Grey). Here is the method:
In this model of emesis the onset of retching and vomiting occurs approximately 20 minutes after whole body irradiation (2 Grey=200 Rads). The test compound is administered (e.g. i.p, p.o., i.v., s.c) immediately after irradiation and its effect on emesis determined by comparison with appropriate controls. […] Alternatively, the test compounds may be administered before irradiation or before treatment with an emetogen, for example 1.5, 3 or 6 hours before irradiation.

Take `CCOc1ccc(-n2nnnc2C(F)(F)F)cc1CN[C@H]1CCCN[C@H]1c1ccccc1.Cl.Cl` [Example 1, [2-Ethoxy-5(5-trifluoromethyl-tetrazol-1-yl)-benzyl]-([2S,3S]-2-phenylpiperidine-3-yl)amine dihydrochloride]: the “inhibition of radiation-induced emesis” value is “inhibited radiation-induced emesis”.
